From PubChem BioAssay (NCI) come the findings set out here.

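48-hour exposure; five concentrations; linearly interpolated endpoints. Abbreviation: GI50, concentration required for 50% inhibition of growth. TGI: concentration producing complete growth inhibition.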 Where only a bound is given, the exact number is not on record here.

Holding throughout (test): NCI-60 cell line screen, 48 h
Experiment [1] concerns K-562 leukemia.
Experiment [2] has as its system SK-MEL-5 melanoma.
Experiment [3] has as its system SF-268 CNS.
For experiment [4], the system named is EKVX NSCLC.
In experiment [5] the test system is IGROV1 ovarian.
For experiment [6], the system named is HCT-15 colon.
The subject of experiment [7] is SR leukemia.
Experiment [8] has as its system MCF7 breast.
Experiment [9] relates to HT29 colon.
Experiment [10] has as its system HOP-92 NSCLC.

`O=C(N[C@@H](C[Se][Se]C[C@H](NC(=O)c1ccc(Br)cc1F)C(=O)O)C(=O)O)c1ccc(Br)cc1F`: the GI50 in [1], in [2], in [3], in experiment [4], in experiment [5] and in [6] was above 100 µM throughout. The GI50 in experiment [7] is 95.4 µM; in experiment [8], 60.8 µM; in experiment [9], above 100 µM; in [10], above 100 µM. Further, the TGI in experiment [1], in [2], in [3], in experiment [4], in experiment [5] and in experiment [6] was above 100 µM throughout. The TGI in experiment [7], in experiment [8], in [9] and in experiment [10] was above 100 µM in each case.

Take `O=c1oc2ccc(I)cc2c(=O)n1-c1ccc(Cl)cc1F`: the GI50 in [1] was 0.658 µM; in experiment [2], 0.751 µM; in experiment [3], 1.51 µM; in experiment [4], 1.53 µM; in experiment [5], 1.19 µM; in [6], 2.37 µM. Moreover, the GI50 is 1.13 µM in [7], 2.36 µM in [8], 3.4 µM in experiment [9] and 0.181 µM in experiment [10]. Moreover, the TGI in [1] was above 100 µM; in experiment [2], 2.19 µM; in experiment [3] it was 16.7 µM; in [4] it was 8.77 µM; in experiment [5] it was 21.1 µM; in [6], 12.6 µM. In addition, the TGI was above 100 µM in [7], 36.5 µM in experiment [8], 18.7 µM in [9] and 0.726 µM in experiment [10].

On to `N#CNC(N)=Nc1ccc(Cl)cc1`, for which the TGI in experiment [1], in experiment [2], in [3], in [4], in experiment [5] and in experiment [6] was above 100 µM each time. Besides, the TGI in [7], in experiment [8], in [9] and in experiment [10] was above 100 µM throughout.

Regarding `CN1/C(=C\C=C\C2=[N+](C)c3ccccc3C2(C)C)C(C)(C)c2ccccc21`, the GI50 in experiment [1] is below 0.0156 µM; in experiment [2], 0.0322 µM; in experiment [3], 0.274 µM; in experiment [4] it was 0.0297 µM; in [5], 0.116 µM; in experiment [6], 0.387 µM. Further, the GI50 was 0.194 µM in experiment [7], 0.127 µM in experiment [8], 0.0444 µM in experiment [9] and 0.128 µM in experiment [10]. Besides, the TGI in [1] is 1.39 µM; in experiment [2] it was 0.151 µM; in experiment [3], 13 µM; in experiment [4], 7.3 µM; in experiment [5] it was 1.74 µM; in [6], 7.85 µM. Also, the TGI was 4.44 µM in experiment [7], 1.18 µM in experiment [8], 1.49 µM in experiment [9] and 0.58 µM in [10].

Regarding `Cn1cc(C2=C(c3cn(C4CCN(Cc5ccccn5)CC4)c4ccccc34)C(=O)NC2=O)c2ccccc21`, the GI50 in [1] is 3.87 µM; in [2], 2.94 µM; in experiment [3] it was above 36.8 µM; in [5], 9.7 µM; in experiment [6], 3.44 µM; in [7], 3.19 µM. The GI50 was 3.23 µM in [8], 2.4 µM in [9] and 83.2 µM in [10]. The TGI is above 100 µM in experiment [1]; above 25.9 µM in [2]; above 100 µM in [3]; above 100 µM in [5]; above 100 µM in experiment [6]; above 100 µM in [7]. Further, the TGI in [8], in [9] and in [10] was above 100 µM each time.

`COC(=O)C1(C)Cc2cc(OC(C)=O)c(OC(C)=O)cc2N1` (stereo not drawn): the GI50 was 3.67 µM in experiment [1]; 13.9 µM in [2]; 16.1 µM in experiment [3]; 15.7 µM in experiment [4]; 5.93 µM in experiment [5]; 2.64 µM in [6]. Moreover, the GI50 in experiment [7] was 1.65 µM; in experiment [8] it was 3.74 µM; in [9] it was 13 µM; in experiment [10], 2.19 µM. Moreover, the TGI in experiment [1] was above 100 µM; in experiment [2], 27.8 µM; in experiment [3], 52.6 µM; in experiment [4] it was 49 µM; in experiment [5] it was 13.9 µM; in experiment [6] it was 12.9 µM. Moreover, the TGI in [7] came out at 4.76 µM; in experiment [8], 21.6 µM; in experiment [9], 56.7 µM; in experiment [10], 8.69 µM.

With `CC1(C)CC2C(=O)c3ccccc3NC2c2ccccc21` (stereo not drawn), the TGI is above 90.6 µM in [1]; 26.7 µM in experiment [2]; above 100 µM in [3]; above 100 µM in experiment [4]; above 100 µM in [5]; above 100 µM in experiment [6]. Also, the TGI in experiment [7] was above 100 µM; in experiment [8] it was above 100 µM; in experiment [9], above 33.2 µM; in experiment [10] it was above 100 µM.

`CN(C)C(=O)O[C@H]1CN[C@H](C#Cc2cc3ncnc(Nc4ccc(OCc5cccc(F)c5)c(Cl)c4)c3s2)C1`: the GI50 in experiment [1] was above 17.1 µM; in [2], 16 µM; in experiment [3], 5.41 µM; in experiment [4], 1.77 µM; in experiment [5], 4.61 µM; in [6], 14.2 µM. In addition, the GI50 in experiment [7] was 5.86 µM; in [8], 14.6 µM; in experiment [9], above 23 µM; in [10] it was 1.77 µM. The TGI in experiment [1] is above 25 µM; in experiment [2] it was above 25 µM; in experiment [3] it was above 25 µM; in experiment [4], above 23 µM; in [5], above 25 µM; in [6], above 25 µM. For the same molecule, the TGI in experiment [7] is above 25 µM; in experiment [8], above 25 µM; in experiment [9], above 25 µM; in experiment [10], 19.4 µM.
